Measurements published in ChEMBL document CHEMBL4177650, “Synthesis and biological evolution of hydrazones derived from 4-(trifluoromethyl)benzohydrazide” (Bioorg Med Chem Lett, 2017).
pIC50: −log10 of the molar value. The source made the active and inactive calls.

Columns and labels:
Klebsiella pneumoniae [1] = assay: Antibacterial activity against gram-negative Klebsiella pneumoniae D 11750/08 after 24 to 48 hrs by microdilution broth method; assay type: functional, organism-based
MONO-MAC-6 [2] = assay: Cytotoxicity against human MONO-MAC-6 cells after overnight incubation by MTT assay; assay type: functional, cell-based
[3] = Selectivity index, ratio of IC50 for human HepG2 cells to MIC for Mycobacterium kansasii 6509/80; assay type: toxicity; conditions: read-out: Selectivity Index
Mycobacterium kansasii [4] = assay: Antimycobacterial activity against Mycobacterium kansasii 6509/80 after 21 days by micromethod; assay type: functional; conditions: 6509/80, 504 h
Candida tropicalis [5] = assay: Antifungal activity against Candida tropicalis 156 after 24 hrs by microdilution broth method; assay type: functional; conditions: Candida tropicalis, 156, 24 h
[6] = test system: Staphylococcus epidermidis; assay: Antibacterial activity against gram-positive Staphylococcus epidermidis H 6966/08 after 48 hrs by microdilution broth method; assay type: functional; conditions: H 6966/08, 48 h
HepG2 [7] = assay: Cytostatic activity against human HepG2 cells incubated overnight followed by compound wash measured after 72 hrs by MTT assay; assay type: ADME, cell-based; conditions: HepG2, 72 h
[8] = Selectivity index, ratio of IC50 for human HepG2 cells to MIC for Mycobacterium kansasii 6509/96; assay type: toxicity; conditions: read-out: Selectivity Index
Mycobacterium kansasii [9] = assay: Antimycobacterial activity against Mycobacterium kansasii 6509/96 after 14 days by micromethod; assay type: functional; conditions: 6509/96, 336 h
Trichosporon asahii = assay: Antifungal activity against Trichosporon asahii 1188 after 24 to 48 hrs by microdilution broth method; assay type: functional, organism-based
Escherichia coli [10] = assay: Antibacterial activity against gram-negative Escherichia coli CCM 4517 after 48 hrs by microdilution broth method; assay type: functional; conditions: CCM 4517, 48 h
[11] = test system: Mycobacterium tuberculosis; assay: Antimycobacterial activity against Mycobacterium tuberculosis H37Rv 331/88 after 21 days by micromethod; assay type: functional; conditions: H37Rv 331/88, 504 h
Staphylococcus aureus [12] = assay: Antibacterial activity against gram-positive Staphylococcus aureus CCM 4516/08 after 48 hrs by microdilution broth method; assay type: functional; conditions: CCM 4516/08, 48 h
[13] = Selectivity index, ratio of IC50 for human HepG2 cells to MIC for Mycobacterium tuberculosis H37Rv 331/88; assay type: toxicity; conditions: read-out: Selectivity Index
Candida albicans = assay: Antifungal activity against Candida albicans ATCC 44859 after 24 to 48 hrs by microdilution broth method; assay type: functional, organism-based
HepG2 [14] = assay: Cytotoxicity against human HepG2 cells after overnight incubation by MTT assay; assay type: cell-based
Pichia kudriavzevii [15] = assay: Antifungal activity against Candida krusei E28 after 24 hrs by microdilution broth method; assay type: functional; conditions: E28, 24 h
Staphylococcus aureus [16] = assay: Antibacterial activity against gram-positive Staphylococcus aureus CCM 4516/08 after 24 hrs by microdilution broth method; assay type: functional; conditions: CCM 4516/08, 24 h
Klebsiella pneumoniae [17] = assay: Antibacterial activity against extended spectrum beta-lactamase-positive Klebsiella pneumoniae J 14368/08 after 24 to 48 hrs by microdilution broth method; assay type: functional, organism-based
[18] = test system: Mycobacterium tuberculosis; assay: Antimycobacterial activity against Mycobacterium tuberculosis H37Rv 331/88 after 14 days by micromethod; assay type: functional; conditions: H37Rv 331/88, 336 h
[19] = Selectivity index, ratio of IC50 for human HepG2 cells to MIC for Mycobacterium avium 330/88; assay type: toxicity; conditions: read-out: Selectivity Index
[20] = test system: Staphylococcus epidermidis; assay: Antibacterial activity against gram-positive Staphylococcus epidermidis H 6966/08 after 24 hrs by microdilution broth method; assay type: functional; conditions: H 6966/08, 24 h
Pichia kudriavzevii [21] = assay: Antifungal activity against Candida krusei E28 after 48 hrs by microdilution broth method; assay type: functional; conditions: E28, 48 h
Staphylococcus aureus [22] = assay: Antibacterial activity against gram-positive methicillin-resistant Staphylococcus aureus H 5996/08 after 48 hrs by microdilution broth method; assay type: functional; conditions: H 5996/08, 48 h
[23] = test system: Trichophyton mentagrophytes; assay: Antifungal activity against Trichophyton mentagrophytes 445 after 72 hrs by microdilution broth method; assay type: functional; conditions: Trichophyton mentagrophytes, 445, 72 h
Mycobacterium avium [24] = assay: Antimycobacterial activity against Mycobacterium avium 330/88 after 14 days by micromethod; assay type: functional; conditions: 330/88, 336 h
[25] = test system: Trichophyton mentagrophytes; assay: Antifungal activity against Trichophyton mentagrophytes 445 after 120 hrs by microdilution broth method; assay type: functional; conditions: Trichophyton mentagrophytes, 445, 120 h
Pseudomonas aeruginosa = assay: Antibacterial activity against gram-negative Pseudomonas aeruginosa CCM 1961 after 48 hrs by microdilution broth method; assay type: functional, organism-based
Staphylococcus aureus [26] = assay: Antibacterial activity against gram-positive methicillin-resistant Staphylococcus aureus H 5996/08 after 24 hrs by microdilution broth method; assay type: functional; conditions: H 5996/08, 24 h
Nakaseomyces glabratus [27] = assay: Antifungal activity against Candida glabrata 20/I after 48 hrs by microdilution broth method; assay type: functional
[28] = Cytotoxicity against mouse bone marrow macrophages after overnight incubation by MTT assay; conditions: BMDM
[29] = Selectivity index, ratio of IC50 for human HepG2 cells to MIC for gram-positive Staphylococcus aureus CCM 4516/08; assay type: toxicity; conditions: read-out: Selectivity Index
Nakaseomyces glabratus [30] = assay: Antifungal activity against Candida glabrata 20/I after 24 hrs by microdilution broth method; assay type: functional
Mycobacterium kansasii [31] = assay: Antimycobacterial activity against Mycobacterium kansasii 6509/96 after 21 days by micromethod; assay type: functional; conditions: 6509/96, 504 h
Enterococcus faecalis [32] = assay: Antibacterial activity against gram-positive Enterococcus faecalis J 14365/08 after 24 hrs by microdilution broth method; assay type: functional; conditions: J 14365/08, 24 h
MONO-MAC-6 [33] = assay: Cytostatic activity against human MONO-MAC-6 cells incubated overnight followed by compound wash measured after 72 hrs by MTT assay; assay type: ADME, cell-based; conditions: MONO-MAC-6, 72 h
Mycobacterium kansasii [34] = assay: Antimycobacterial activity against Mycobacterium kansasii 6509/80 after 14 days by micromethod; assay type: functional; conditions: 6509/80, 336 h
Candida tropicalis [35] = assay: Antifungal activity against Candida tropicalis 156 after 48 hrs by microdilution broth method; assay type: functional; conditions: Candida tropicalis, 156, 48 h
Enterococcus faecalis [36] = assay: Antibacterial activity against gram-positive Enterococcus faecalis J 14365/08 after 48 hrs by microdilution broth method; assay type: functional; conditions: J 14365/08, 48 h
Mycobacterium avium [37] = assay: Antimycobacterial activity against Mycobacterium avium 330/88 after 21 days by micromethod; assay type: functional; conditions: 330/88, 504 h
Escherichia coli [38] = assay: Antibacterial activity against gram-negative Escherichia coli CCM 4517 after 24 hrs by microdilution broth method; assay type: functional; conditions: CCM 4517, 24 h
Aspergillus fumigatus = assay: Antifungal activity against Aspergillus fumigatus 231 after 24 to 48 hrs by microdilution broth method; assay type: functional, organism-based
Mycobacterium kansasii [39] = assay: Antimycobacterial activity against Mycobacterium kansasii 6509/80 after 7 days by micromethod; assay type: functional; conditions: 6509/80, 168 h
Lichtheimia corymbifera = assay: Antifungal activity against Absidia corymbifera 272 after 24 to 48 hrs by microdilution broth method; assay type: functional, organism-based
Mycobacterium kansasii [40] = assay: Antimycobacterial activity against Mycobacterium kansasii 6509/96 after 7 days by micromethod; assay type: functional; conditions: 6509/96, 168 h
[41] = Selectivity index, ratio of IC50 for human HepG2 cells to MIC for Trichophyton mentagrophytes 445; assay type: toxicity; conditions: read-out: Selectivity Index
[42] = Selectivity index, ratio of IC50 for human HepG2 cells to MIC for Candida glabrata 20/I; assay type: toxicity; conditions: read-out: Selectivity Index

O=C(N/N=C/c1ccc(Cl)cc1)c1ccc(C(F)(F)F)cc1
125 µM: MIC (Candida tropicalis [5]) | MIC [23] | MIC [25] | MIC (Candida tropicalis [35])
> 1.6: selectivity ratio [29]
5.15: pIC50 [28]
inactive: Activity (Klebsiella pneumoniae [1]) | Activity (Trichosporon asahii) | Activity (Candida albicans) | Activity (Klebsiella pneumoniae [17]) | Activity (Pseudomonas aeruginosa) | Activity (Aspergillus fumigatus) | Activity (Lichtheimia corymbifera)
16 µM: MIC (Mycobacterium kansasii [4]) | MIC (Mycobacterium kansasii [9]) | MIC [11] | MIC [18] | MIC (Mycobacterium kansasii [31]) | MIC (Mycobacterium kansasii [34]) | MIC (Mycobacterium kansasii [39]) | MIC (Mycobacterium kansasii [40])
< 4.00: pIC50 (MONO-MAC-6 [2]) | pIC50 (HepG2 [7]) | pIC50 (HepG2 [14]) | pIC50 (MONO-MAC-6 [33])
> 125 µM: MIC (Escherichia coli [10]) | MIC (Mycobacterium avium [24]) | MIC (Nakaseomyces glabratus [27]) | MIC (Nakaseomyces glabratus [30]) | MIC (Enterococcus faecalis [36]) | MIC (Mycobacterium avium [37]) | MIC (Escherichia coli [38])
31.2 µM: MIC [20]
62.5 µM: MIC [6] | MIC (Staphylococcus aureus [12]) | MIC (Pichia kudriavzevii [15]) | MIC (Staphylococcus aureus [16]) | MIC (Pichia kudriavzevii [21]) | MIC (Staphylococcus aureus [22]) | MIC (Staphylococcus aureus [26]) | MIC (Enterococcus faecalis [32])
> 6.25: selectivity ratio [3] | selectivity ratio [8] | selectivity ratio [13] | selectivity ratio [19]

O=C(N/N=C/c1ccccc1O)c1ccc(C(F)(F)F)cc1
250 µM: MIC (Mycobacterium kansasii [4]) | MIC (Mycobacterium kansasii [9]) | MIC [11] | MIC [20] | MIC (Mycobacterium kansasii [31]) | MIC (Enterococcus faecalis [32]) | MIC (Mycobacterium kansasii [34]) | MIC (Enterococcus faecalis [36]) | MIC (Mycobacterium avium [37]) | MIC (Mycobacterium kansasii [39]) | MIC (Mycobacterium kansasii [40])
inactive: Activity (Klebsiella pneumoniae [1]) | Activity (Trichosporon asahii) | Activity (Candida albicans) | Activity (Klebsiella pneumoniae [17]) | Activity (Pseudomonas aeruginosa) | Activity (Aspergillus fumigatus) | Activity (Lichtheimia corymbifera)
15.6 µM: MIC [25] | MIC (Nakaseomyces glabratus [27])
500 µM: MIC [6] | MIC (Escherichia coli [10]) | MIC (Staphylococcus aureus [16]) | MIC (Staphylococcus aureus [26]) | MIC (Escherichia coli [38])
> 6.4: selectivity ratio [41] | selectivity ratio [42]
3.9 µM: MIC (Nakaseomyces glabratus [30])
> 125 µM: MIC (Candida tropicalis [5]) | MIC (Pichia kudriavzevii [15]) | MIC (Pichia kudriavzevii [21]) | MIC (Candida tropicalis [35])
5.77: pIC50 (MONO-MAC-6 [33])
< 4.00: pIC50 (HepG2 [14]) | pIC50 [28]
7.81 µM: MIC [23]
> 500 µM: MIC (Staphylococcus aureus [12]) | MIC (Staphylococcus aureus [22])
5.64: pIC50 (MONO-MAC-6 [2])
125 µM: MIC [18] | MIC (Mycobacterium avium [24])
5.21: pIC50 (HepG2 [7])

O=C(N/N=C/c1cc(Cl)ccc1O)c1ccc(C(F)(F)F)cc1
≤ 0.49 µM: MIC (Nakaseomyces glabratus [30])
1.98 µM: MIC (Staphylococcus aureus [12]) | MIC (Staphylococcus aureus [16]) | MIC (Staphylococcus aureus [22]) | MIC [23] | MIC (Staphylococcus aureus [26]) | MIC (Enterococcus faecalis [32])
> 25.6: selectivity ratio [41] | selectivity ratio [42]
> 50.5: selectivity ratio [29]
4.99: pIC50 (MONO-MAC-6 [33])
4.87: pIC50 (HepG2 [7])
250 µM: MIC (Escherichia coli [10]) | MIC (Escherichia coli [38])
0.98 µM: MIC (Nakaseomyces glabratus [27])
125 µM: MIC (Mycobacterium kansasii [4]) | MIC (Mycobacterium kansasii [9]) | MIC (Mycobacterium kansasii [31]) | MIC (Mycobacterium kansasii [34]) | MIC (Mycobacterium avium [37])
> 125 µM: MIC (Candida tropicalis [5]) | MIC (Pichia kudriavzevii [15]) | MIC (Pichia kudriavzevii [21]) | MIC (Candida tropicalis [35])
5.24: pIC50 (MONO-MAC-6 [2])
inactive: Activity (Klebsiella pneumoniae [1]) | Activity (Trichosporon asahii) | Activity (Candida albicans) | Activity (Klebsiella pneumoniae [17]) | Activity (Pseudomonas aeruginosa) | Activity (Aspergillus fumigatus) | Activity (Lichtheimia corymbifera)
3.9 µM: MIC [6] | MIC [20] | MIC [25] | MIC (Enterococcus faecalis [36])
> 1.6: selectivity ratio [3] | selectivity ratio [8] | selectivity ratio [13] | selectivity ratio [19]
< 4.00: pIC50 (HepG2 [14]) | pIC50 [28]
62.5 µM: MIC [11] | MIC [18] | MIC (Mycobacterium avium [24]) | MIC (Mycobacterium kansasii [39]) | MIC (Mycobacterium kansasii [40])
